Source: patent US20100267561A1, “HERBICIDAL PYRIDAZINONE DERIVATIVES” (priority 2007, published 2010)

Columns and labels:
Test in all cases: Test B pre-/postemergence plant response
Type in all cases: in vivo
[1] = test system: blackgrass (Alopecurus myosuroides)
How it was run: (§1)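 Visual scoring from 0 (no effect) to 100 (complete control) against untreated controls was done 13 to 15 days after greenhouse treatment. Chemicals were formulated in a surfactant-containing non-phytotoxic solvent and applied to soil preemergence or to 1- to 4-leaf (2-18 cm) plants postemergence.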

[2] = test system: common (oilseed) sunflower (Helianthus annuus); settings: Preemergence
How it was run: as §1

[3] = test system: common ragweed (Ambrosia elation)
How it was run: as §1

[4] = test system: eastern black (E.B.) nightshade (Solanum ptycanthum); settings: Preemergence, scale 0 to 100
How it was run: as §1

[5] = test system: goosegrass (Eleusine indica)
How it was run: as §1

[6] = test system: green foxtail (Setaria viridis)
How it was run: as §1

kochia (Kochia scoparia) = test system: kochia (Kochia scoparia)
How it was run: as §1

[7] = test system: lambsquarters (Chenopodium album)
How it was run: as §1

[8] = test system: large crabgrass (Digitaria sanguinalis)
How it was run: as §1

[9] = test system: morningglory (Ipomoea coccinea)
How it was run: as §1

soybean (Glycine max) = test system: soybean (Glycine max)
How it was run: as §1

[10] = test system: surinam grass (Brachiaria decumbens)
How it was run: as §1

[11] = test system: wheat (Triticum aestivum)
How it was run: as §1

wild oat (Avena fatua) = test system: wild oat (Avena fatua)
How it was run: as §1

[12] = Postemergence, 31 g ai/ha, scale 0 to 100, 0 no effect, 100 complete control
[13] = Postemergence, 62 g ai/ha, scale 0 to 100
[14] = Postemergence, 125 g ai/ha, scale 0 to 100
[15] = Postemergence, 250 g ai/ha, scale 0 to 100
[16] = Preemergence, 31 g ai/ha, 0 to 100 scale, 0 no effect, 100 complete control
[17] = Preemergence, 62 g ai/ha, scale 0 to 100
[18] = Preemergence, 125 g ai/ha, scale 0 to 100
[19] = Preemergence, 250 g ai/ha, scale 0 to 100

## Cc1cc(-c2ccc(Br)cc2)nn1-c1c(OC(=O)C2CC2)cnn(C)c1=O [Compound 5]
[1]; 250 g ai/ha, preemergence, 0-100 scale
  Blackgrass plant response rating: 100
[1]; [12]
  Plant response rating, Blackgrass: 95
[1]; [13]
  Plant response rating, Blackgrass: 100
[1]; [14]
  Plant response rating, Blackgrass: 100
[1]; [15]
  Plant response rating, Blackgrass: 100
[1]; [16]
  Plant response rating, Blackgrass: 100
[1]; [17]
  Plant response rating, Blackgrass: 100
[1]; [18]
  Plant response rating, Blackgrass: 100
[2]; 31 g ai/ha, 0 to 100 scale, 0 no effect, 100 complete control
  Plant response rating, Sunflower: 0
[2]; 62 g ai/ha, scale 0 to 100
  Plant response rating, Sunflower: 0
[2]; 125 g ai/ha, scale 0 to 100
  Plant response rating, Sunflower: 0
[2]; 250 g ai/ha, scale 0 to 100
  Plant response rating, Sunflower: 0
[3]; [12]
  Plant response rating, Ragweed: 0
[3]; [13]
  Plant response rating, Ragweed: 0
[3]; [14]
  Plant response rating, Ragweed: 60
[3]; [15]
  Plant response rating, Ragweed: 65
[3]; [16]
  Plant response rating, Ragweed: 0
[3]; [17]
  Plant response rating, Ragweed: 0
[3]; [18]
  Plant response rating, Ragweed: 0
[3]; [19]
  Plant response rating, Ragweed: 10
[4]; 62 g ai/ha
  Plant response rating, Nightshade, E. B.: 0
[4]; 250 g ai/ha
  Plant response rating, Nightshade, E. B.: 100
[5]; [12]
  Plant response rating, Goosegrass: 95
[5]; [13]
  Plant response rating, Goosegrass: 95
[5]; [14]
  Plant response rating, Goosegrass: 100
[5]; [15]
  Plant response rating, Goosegrass: 100
[5]; [16]
  Plant response rating, Goosegrass: 75
[5]; [17]
  Plant response rating, Goosegrass: 100
[5]; [18]
  Plant response rating, Goosegrass: 100
[5]; [19]
  Plant response rating, Goosegrass: 100
[6]; [12]
  Plant response rating, Foxtail, Green: 95
[6]; [13]
  Plant response rating, Foxtail, Green: 100
[6]; [14]
  Plant response rating, Foxtail, Green: 100
[6]; [15]
  Plant response rating, Foxtail, Green: 100
[6]; [16]
  Plant response rating, Foxtail, Green: 98
[6]; [17]
  Plant response rating, Foxtail, Green: 100
[6]; [18]
  Plant response rating, Foxtail, Green: 100
[6]; [19]
  Plant response rating, Foxtail, Green: 100
Kochia (Kochia scoparia); [12]
  Plant response rating, Kochia: 0
Kochia (Kochia scoparia); [13]
  Plant response rating, Kochia: 0
Kochia (Kochia scoparia); [14]
  Plant response rating, Kochia: 0
Kochia (Kochia scoparia); [15]
  Plant response rating, Kochia: 70
Kochia (Kochia scoparia); [17]
  Plant response rating, Kochia: 50
Kochia (Kochia scoparia); [18]
  Plant response rating, Kochia: 50
Kochia (Kochia scoparia); [19]
  Plant response rating, Kochia: 60
[7]; [12]
  Plant response rating, Lambsquarters: 0
[7]; [13]
  Plant response rating, Lambsquarters: 20
[7]; [14]
  Plant response rating, Lambsquarters: 80
[7]; [15]
  Plant response rating, Lambsquarters: 80
[7]; [18]
  Plant response rating, Lambsquarters: 90
[7]; [19]
  Plant response rating, Lambsquarters: 100
[8]; [12]
  Plant response rating, Crabgrass, Large: 100
[8]; [13]
  Plant response rating, Crabgrass, Large: 100
[8]; [14]
  Plant response rating, Crabgrass, Large: 100
[8]; [15]
  Plant response rating, Crabgrass, Large: 100
[8]; [16]
  Plant response rating, Crabgrass, Large: 100
[8]; [17]
  Plant response rating, Crabgrass, Large: 100
[8]; [18]
  Plant response rating, Crabgrass, Large: 100
[8]; [19]
  Plant response rating, Crabgrass, Large: 100
[9]; [12]
  Plant response rating, Morningglory: 0
[9]; [13]
  Plant response rating, Morningglory: 0
[9]; [14]
  Plant response rating, Morningglory: 0
[9]; [15]
  Plant response rating, Morningglory: 0
[9]; [16]
  Plant response rating, Morningglory: 0
[9]; [17]
  Plant response rating, Morningglory: 0
[9]; [18]
  Plant response rating, Morningglory: 0
[9]; [19]
  Plant response rating, Morningglory: 0
Soybean (Glycine max); [12]
  Plant response rating, Soybean: 0
Soybean (Glycine max); [13]
  Plant response rating, Soybean: 50
Soybean (Glycine max); [14]
  Plant response rating, Soybean: 65
Soybean (Glycine max); [15]
  Plant response rating, Soybean: 70
Soybean (Glycine max); [16]
  Plant response rating, Soybean: 0
Soybean (Glycine max); [17]
  Plant response rating, Soybean: 0
Soybean (Glycine max); [18]
  Plant response rating, Soybean: 0
[10]; [12]
  Plant response rating, Surinam Grass: 100
[10]; [13]
  Plant response rating, Surinam Grass: 100
[10]; [14]
  Plant response rating, Surinam Grass: 100
[10]; [15]
  Plant response rating, Surinam Grass: 100
[10]; [16]
  Plant response rating, Surinam Grass: 100
[10]; [17]
  Plant response rating, Surinam Grass: 100
[10]; [18]
  Plant response rating, Surinam Grass: 100
[10]; [19]
  Plant response rating, Surinam Grass: 100
[11]; [12]
  Plant response rating, Wheat: 90
[11]; [13]
  Plant response rating, Wheat: 100
[11]; [14]
  Plant response rating, Wheat: 100
[11]; [15]
  Plant response rating, Wheat: 100
[11]; [16]
  Plant response rating, Wheat: 30
[11]; [17]
  Plant response rating, Wheat: 70
[11]; [18]
  Plant response rating, Wheat: 95
[11]; [19]
  Plant response rating, Wheat: 98
Wild oat (Avena fatua); [12]
  Plant response rating, Oat, Wild: 95
Wild oat (Avena fatua); [13]
  Plant response rating, Oat, Wild: 100
Wild oat (Avena fatua); [14]
  Plant response rating, Oat, Wild: 100
Wild oat (Avena fatua); [15]
  Plant response rating, Oat, Wild: 100
Wild oat (Avena fatua); [16]
  Plant response rating, Oat, Wild: 30
Wild oat (Avena fatua); [17]
  Plant response rating, Oat, Wild: 70
Wild oat (Avena fatua); [18]
  Plant response rating, Oat, Wild: 80
Wild oat (Avena fatua); [19]
  Plant response rating, Oat, Wild: 95
